Converted amounts (≈) assume the structure as drawn.

Data set [1] is described as follows: Aqueous solubility of the compound in phosphate buffer at pH 6.5 by reverse phase HPLC analysis. The format is physicochemical.
Data set [2] can be described thus: Permeability across apical to basolateral side of human Caco2 cells at 10 uM after 21 days. The format is ADME, cell-based. The note with it: Caco-2, read-out: permeability.
Data set [3] can be described thus: Permeability across basolateral to apical side in human Caco2 cells at 10 uM after 21 days. The format is ADME, cell-based. The note with it: Caco-2, read-out: permeability.
Data set [4] is described as follows: Intrinsic clearance in human liver microsomes assessed per mg of protein. The format is ADME, Microsome. Background: Liver microsomes are a subcellular fraction often used to study metabolism.
Data set [5] can be described thus: Intrinsic clearance in rat liver microsomes assessed per mg of protein. Format: ADME, Microsome.
Data set [6] in a line: Half life in Hanover Wistar rat at 3 mg/kg, iv. The arrangement: dose 3 mg/kg, route intravenous. The conditions noted are these: in vivo. Format: ADME, organism-based.
Data set [7] is described as follows: Volume of distribution at steady state in Hanover Wistar rat at 3 mg/kg, iv. Format: ADME, organism-based. The arrangement: dose 3 mg/kg, route intravenous. The note with it: in vivo, read-out: Vdss.
Data set [8] is described as follows: Clearance in Hanover Wistar rat at 3 mg/kg, iv. The format is ADME, organism-based. The note with it: in vivo. More on the design: dose 3 mg/kg, route intravenous.
Data set [9] can be described thus: Oral bioavailability in Hanover Wistar rat at 3 mg/kg. The note with it: in vivo. The format is ADME, organism-based.
Data set [10] in a line: AUC in Hanover Wistar rat at 3 mg/kg, po. The arrangement: dose 3 mg/kg, route oral. The format is ADME, organism-based. The conditions noted are these: plasma.
Data set [11] can be described thus: Cmax in Hanover Wistar rat at 3 mg/kg, po. The format is ADME, organism-based. More on the design: dose 3 mg/kg, route oral. The conditions noted are these: in vivo.

`C[C@H](CS(C)(=O)=O)Nc1n[nH]c2nc(Oc3ccc(F)cc3F)ncc12` gave a solubility in data set [1] of 57.2 µg/mL (≈ 149 µM). The Papp A→B at 10 µM in [2] is 3 ×10⁻⁶ cm/s. In data set [3], the Papp B→A at 10 µM came to 18.9 ×10⁻⁶ cm/s. Further, the microsomal CLint in data set [4] was 0.74 µL/min/mg; in [5], 6.2 µL/min/mg. For the same molecule, the half-life in data set [6] is 3.4 h. Moreover, in [7], the Vd amounted to 8.1 L/kg. Further, the clearance in [8] turned out to be 43.6 mL/min/kg. Also, in data set [9], the bioavailability stood at 105%. Moreover, the AUC in data set [10] is 1220 ng·h/mL. The molecule further registered a Cmax in [11] of 446 ng/mL.

The solubility is how much of the substance goes into solution per volume. The low end stands for a poorly soluble substance, the high end for a readily soluble substance. For orientation: microsomal CLint means the rate of metabolic loss divided by the concentration. A word on the half-life: it is the time in which the quantity being followed falls by half. A word on the clearance: it is a measure of how efficiently the substance is removed, as volume per time. Read a high clearance as efficient removal. What is called AUC is the area under the concentration-time curve, a measure of exposure. Low readings indicate low exposure, high ones high exposure. Broadly, the Cmax is the maximum level reached in the sampled fluid or tissue.

(Values after ChEMBL document CHEMBL1777778 (Bioorg Med Chem Lett, 2011).)
